Data as given in patent publication US7407939B2, “Protein kinase inhibitors comprising ATP mimetics conjugated to peptides or peptidomimetics” (CureGenics Ltd., priority 2001, dated 2008).
Read-outs that look alike come from different tables or passages of the source. *1 amine or outer side, *2 acyl side, *3 side chain or, on linkers, in order; H or OH if unused. Where a SMILES comes first, the peptide text is derived from it. Side-chain parts run from the residue outwards. [ ]: non-standard residue; d: D form. The star is where a group is joined. Isoquinoline5sulfonyl = O=S(=O)(c1cccc2cnccc12)*; X2 = O=C(OCC(Cc1ccccc1)N[*:1])[*:2]; Ethylenediamine = C(CN[*:2])N[*:1]; hLeu = CC(C)CC[C@H](N)C(=O)O; Nle = CCCC[C@H](N)C(=O)O; Orn = NCCC[C@H](N)C(=O)O; Dab = NCC[C@H](N)C(=O)O; Nva = CCC[C@H](N)C(=O)O; Abu = CC[C@H](N)C(=O)O; Dap = NC[C@H](N)C(=O)O; Ava = NCCCCC(=O)O; βAla = NCCC(=O)O

What was measured:
PKB = molecular target: T1, PKB (Homo sapiens, UniProt P31749); test: PKB in vitro kinase activity assay (soluble His-HA-PKB / SPA bead screening); format: biochemical; set-up: % Inhibition PKB I / % Inhibition PKB II: concentration or dose not given beside the values; conditions: for inhibition at 1 µM: 1 μM compound concentration
T1 construct: His; HA; made in house
T1 sequence (P31749 whole entry, species assumed): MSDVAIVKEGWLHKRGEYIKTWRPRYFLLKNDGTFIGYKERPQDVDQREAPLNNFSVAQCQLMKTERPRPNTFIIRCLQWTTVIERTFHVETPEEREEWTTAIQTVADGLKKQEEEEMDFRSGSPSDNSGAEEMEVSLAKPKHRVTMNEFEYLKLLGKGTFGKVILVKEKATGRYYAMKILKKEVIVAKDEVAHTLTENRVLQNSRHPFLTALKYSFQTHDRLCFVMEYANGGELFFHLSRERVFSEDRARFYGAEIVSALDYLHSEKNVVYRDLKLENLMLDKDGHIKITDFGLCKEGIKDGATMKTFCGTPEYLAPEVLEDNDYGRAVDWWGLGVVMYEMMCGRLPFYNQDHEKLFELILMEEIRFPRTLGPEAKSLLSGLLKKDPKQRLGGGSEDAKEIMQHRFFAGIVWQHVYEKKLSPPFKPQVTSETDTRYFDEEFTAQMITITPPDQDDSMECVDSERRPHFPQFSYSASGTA

PKA = molecular target: T2, PKA (Bos taurus, UniProt P00517); test: In vitro PKA kinase activity assay (kemptide / SPA beads); format: biochemical; set-up: % Inhibition PKA: concentration or dose not given beside the values; conditions: for inhibition at 1 µM: 1 μM compound concentration;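 for all read-outs here: Cell-free assay of purified PKA catalytic subunit phosphorylating the 7-mer kemptide substrate, run in MOPS buffer with magnesium acetate and BSA, with blank wells lacking enzyme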
T2 construct: purchased Promega

PC-3 cells = test: ssDNA apoptosis ELISA (induction of apoptosis in prostate cancer cells); format: cell-based; conditions: 50 μM, optical density of treated divided by untreated cells
Method: Cells were assayed for Apoptosis using the ssDNA Apoptosis ELISA kit (Chemicon International Inc.). Cells were seeded in 96-well plates (5000 cells/well) and treated with different concentrations of the inhibitors. At different time point, plates were centrifuges at 200 g for 5 min, medium was removed and the cells were fixed with 80% methanol in PBS for 30 min at room temperature. Plates were dried by floating in a waterbath at 37° C. for 20 minutes. 50 μl of Formamide was added to each well and incubate at room temperature for 10 min. Plates were heated to 75° C. in a circulating waterbath for 10 min, cooled in refrigerator for 5 min, and then formamide was removed. Plates were blocked by 3% non-fat dry milk in distilled water (w/v) for 1 hr at 37° C. Blocking was removed and 100 μl of antibody mixture (primary monoclonal antibody to ssDNA and HRP-labelled anti-mouse IgM) was added to each well. Plates were monitored for colour development by ABTS using microplate reader at 405 nm.
DNA in apoptotic cells is sensitive to denaturation by formamide in contrast to necrotic cells. This sensitivity is due to changes in apoptotic cells chromatin. The specific denaturation was detected with monoclonal antibody to single stranded DNA. Using ssDNA Apoptosis ELISA kit (Chemicon International, Inc.) chimeric compounds were analyzed for their potential to induce apoptosis in PC-3 cells compared to TRAIL (TNF-related apoptosis-inducing ligand), a known apoptotic agent (R&D Systems, Inc.). Results are presented in values of apoptotic index which is calculated by dividing the optical density of treated and untreated cells.

[1] = Assay 1, read-out: PKB-kinase (spa) Assay 1, % inhibition of kinase activity
[2] = Assay 2, read-out: PKB-kinase (spa) Assay 2, % inhibition of kinase activity
[3] = Table 1, most preferred compounds, read-out: IC50 PKB
[4] = Assay 1, read-out: PKA-kinase Assay 1, % inhibition of kinase activity
[5] = Assay 2, read-out: PKA-kinase Assay 2, % inhibition of kinase activity
[6] = Table 1, most preferred compounds, read-out: IC50 PKA
[7] = Table 6, most active compounds from plate TY-60020, read-out: IC50 PKB
[8] = Table 6, most active compounds from plate TY-60020, read-out: IC50 PKA
[9] = Table 3, linear 7-mer peptides, read-out: Activity PKB
[10] = Table 3, linear 7-mer peptides, read-out: Activity PKA
[11] = chimeric PTR compounds (peptide conjugated to isoquinoline small molecule), read-out: PKB IC50
[12] = chimeric PTR compounds (peptide conjugated to isoquinoline small molecule), read-out: PKA IC50

CCCC[C@H](NC(=O)[C@H](CCCNC(=N)N)NC(=O)[C@@H]1CCCN1C(=O)[C@@H](N)CCCNC(=N)N)C(=O)N[C@@H](CCC(=O)NCC(=O)NCCNS(=O)(=O)c1cccc2cnccc12)C(=O)N[C@@H](CCN)C(=O)N[C@@H](Cc1ccccc1)C(N)=O [60020-57, Arg-Pro-Arg-Nle-Glu-(Gly-5-aminoethylsulfonamide)-Dab-Phe] (H-RPR[Nle]E([Gly-Ethylenediamine-Isoquinoline5sulfonyl])[Dab]F-NH2)
inhibition at 1 µM (PKB; [1]): 92%
inhibition at 1 µM (PKB; [2]): 93%
IC50 (PKB; [3]): 0.07 µM
inhibition at 1 µM (PKA; [4]): 95%
inhibition at 1 µM (PKA; [5]): 96%
IC50 (PKA; [6]): 0.21 µM

CCCC[C@H](NC(=O)[C@H](CCCNC(=N)N)NC(=O)[C@@H]1CCCN1C(=O)[C@@H](N)CCCNC(=N)N)C(=O)N[C@@H](CCC(=O)NCC(=O)NCCNS(=O)(=O)c1cccc2cnccc12)C(=O)N[C@@H](CCN)C(=O)N[C@@H](CCC(C)C)C(N)=O [60020-58, Arg-Pro-Arg-Nle-Glu-(Gly-5-aminoethylsulfonamide)-Dab-Hol] (H-RPR[Nle]E([Gly-Ethylenediamine-Isoquinoline5sulfonyl])[Dab][hLeu]-NH2)
inhibition at 1 µM (PKB; [1]): 89%
inhibition at 1 µM (PKB; [2]): 93%
IC50 (PKB; [3]): 0.12 µM
inhibition at 1 µM (PKA; [4]): 98%
inhibition at 1 µM (PKA; [5]): 99%
IC50 (PKA; [6]): 0.05 µM

CCCC[C@H](NC(=O)[C@H](CCCNC(=N)N)NC(=O)[C@@H]1CCCN1C(=O)[C@@H](N)CCCNC(=N)N)C(=O)N[C@@H](CCC(=O)NCC(=O)NCCNS(=O)(=O)c1cccc2cnccc12)C(=O)N[C@@H](CCCN)C(=O)N[C@@H](Cc1ccccc1)C(N)=O [60020-59] (H-RPR[Nle]E([Gly-Ethylenediamine-Isoquinoline5sulfonyl])[Orn]F-NH2; N-terminus assumed)
inhibition at 1 µM (PKB; [1]): 62%
inhibition at 1 µM (PKB; [2]): 75%
IC50 (PKB; [7]): 0.3 µM
inhibition at 1 µM (PKA; [4]): 92%
inhibition at 1 µM (PKA; [5]): 93%
IC50 (PKA; [8]): 0.2 µM

N=C(N)NCCC[C@H](NC(=O)[C@@H]1CCCN1C(=O)[C@@H](N)CCCNC(=N)N)C(=O)N[C@@H](CN)C(=O)N[C@@H](CCC(=O)NCCC(=O)NCCNS(=O)(=O)c1cccc2cnccc12)C(=O)N[C@@H](CCCN)C(=O)N[C@@H](Cc1ccccc1)C(N)=O [60020-67] (H-RPR[Dap]E([βAla-Ethylenediamine-Isoquinoline5sulfonyl])[Orn]F-NH2; N-terminus assumed)
inhibition at 1 µM (PKB; [1]): 51%
inhibition at 1 µM (PKB; [2]): 68%
IC50 (PKB; [7]): 1.08 µM
IC50 (PKA; [8]): 0.25 µM

CC(C)CC[C@H](NC(=O)[C@H](CCCN)NC(=O)[C@H](CCC(=O)NCCC(=O)NCCNS(=O)(=O)c1cccc2cnccc12)NC(=O)[C@H](CN)NC(=O)[C@H](CCCNC(=N)N)NC(=O)[C@@H]1CCCN1C(=O)[C@@H](N)CCCNC(=N)N)C(N)=O [60020-68] (H-RPR[Dap]E([βAla-Ethylenediamine-Isoquinoline5sulfonyl])[Orn][hLeu]-NH2; N-terminus assumed)
inhibition at 1 µM (PKB; [1]): 61%
inhibition at 1 µM (PKB; [2]): 74%
IC50 (PKB; [7]): 0.5 µM
IC50 (PKA; [8]): 0.25 µM

CCCC[C@H](NC(=O)[C@H](CCCNC(=N)N)NC(=O)[C@@H]1CCCN1C(=O)[C@@H](N)CCCNC(=N)N)C(=O)N[C@@H](CCC(=O)NCCC(=O)NCCNS(=O)(=O)c1cccc2cnccc12)C(=O)N[C@@H](CCC)C(=O)N[C@@H](Cc1ccccc1)C(N)=O [60020-95] (H-RPR[Nle]E([βAla-Ethylenediamine-Isoquinoline5sulfonyl])[Nva]F-NH2; N-terminus assumed)
inhibition at 1 µM (PKB; [1]): 46%
inhibition at 1 µM (PKB; [2]): 90%
IC50 (PKB; [7]): 3.3 µM
IC50 (PKA; [8]): 2 µM

CC[C@H](NC(=O)[C@H](CO)NC(=O)[C@@H](NC(=O)[C@H](CCCNC(=N)N)NC(=O)[C@@H]1CCCN1C(=O)[C@@H](N)CCCNC(=N)N)[C@@H](C)O)C(=O)NC(COC(=O)NCCNS(=O)(=O)c1cccc2cnccc12)Cc1ccccc1 (some centres unmarked) [PTR 6013] (H-RPRTS[Abu][X2]-{Ethylenediamine-Isoquinoline5sulfonyl})
IC50 (PKB; Table 2, chimeric compounds, read-out: Activity PKB): 3 µM
IC50 (PKA; Table 2, chimeric compounds, read-out: Activity PKA): 1 µM

CC(C)CC[C@H](NC(=O)[C@H](C)NC(=O)[C@H](CO)NC(=O)[C@@H](NC(=O)[C@H](CCCNC(=N)N)NC(=O)[C@@H]1CCCN1C(=O)[C@@H](N)CCCNC(=N)N)[C@@H](C)O)C(N)=O [TY 60002-50, Arg-Pro-Arg-Thr-Ser-Ala-Hol] (H-RPRTSA[hLeu]-NH2; N-terminus and C-terminus assumed)
IC50 (PKB; [9]): 5 µM
IC50 (PKA; [10]): > 40 µM

CC[C@H](NC(=O)[C@H](CO)NC(=O)[C@@H](NC(=O)[C@H](CCCNC(=N)N)NC(=O)[C@@H]1CCCN1C(=O)[C@@H](N)CCCNC(=N)N)C(C)C)C(=O)N[C@@H](Cc1ccccc1)C(N)=O [TY 60002-61, Arg-Pro-Arg-Val-Ser-Abu-Phe] (H-RPRVS[Abu]F-NH2; N-terminus and C-terminus assumed)
IC50 (PKB; [9]): 5 µM
IC50 (PKA; [10]): > 40 µM

CC[C@H](NC(=O)[C@H](CO)NC(=O)[C@@H](NC(=O)[C@H](CCCNC(=N)N)NC(=O)[C@@H]1CCCN1C(=O)[C@@H](N)CCCNC(=N)N)[C@@H](C)O)C(=O)N[C@@H](CCC(C)C)C(N)=O [TY 60002-73, Arg-Pro-Arg-Thr-Ser-Abu-Hol] (H-RPRTS[Abu][hLeu]-NH2; N-terminus and C-terminus assumed)
IC50 (PKB; [9]): 5 µM
IC50 (PKB; Table 10, accurate IC50 curve, peptide moiety alone, read-out: IC50 μM PKB): 34 µM
% Inhibition PKB I (PKB; plate screening, peptide moiety alone, PKB I): 44%
IC50 (PKA; [10]): > 40 µM
IC50 (PKA; Table 10, accurate IC50 curve, peptide moiety alone, read-out: IC50 μM PKA): 228 µM
% Inhibition PKA (PKA; plate screening, peptide moiety alone): 8%

CC(C)CC[C@H](NC(=O)[C@H](CN)NC(=O)[C@H](CO)NC(=O)[C@@H](NC(=O)[C@H](CCCNC(=N)N)NC(=O)[C@@H]1CCCN1C(=O)[C@@H](N)CCCNC(=N)N)[C@@H](C)O)C(N)=O [TY 60002-96, Arg-Pro-Arg-Thr-Ser-Dap-Hol] (H-RPRTS[Dap][hLeu]-NH2; N-terminus and C-terminus assumed)
IC50 (PKB; [9]): 5 µM
IC50 (PKA; [10]): > 40 µM

C[C@@H](O)[C@H](NC(=O)[C@H](CCCNC(=N)N)NC(=O)[C@@H]1CCCN1C(=O)[C@@H](N)CCCNC(=N)N)C(=O)N[C@@H](CCC(=O)NCCCCC(=O)NCCNS(=O)(=O)c1cccc2cnccc12)C(=O)N[C@@H](CO)C(=O)N[C@@H](Cc1ccccc1)C(N)=O [compound 6090] (H-RPRTE([Ava-Ethylenediamine-Isoquinoline5sulfonyl])SF-NH2; N-terminus assumed)
IC50 (PKB; [11]): 5.6 µM
IC50 (PKA; [12]): 0.6 µM

CCCC[C@H](NC(=O)[C@H](CCCNC(=N)N)NC(=O)[C@@H]1CCCN1C(=O)[C@@H](N)CCCNC(=N)N)C(=O)N[C@@H](CCC(=O)NCCNS(=O)(=O)c1cccc2cnccc12)C(=O)N[C@@H](CO)C(=O)N[C@@H](Cc1ccccc1)C(N)=O [compound 6128]
IC50 (PKB; [11]): 9 µM
IC50 (PKA; [12]): 0.1 µM

C[C@@H](O)[C@H](NC(=O)[C@H](CCCNC(=N)N)NC(=O)[C@@H]1CCCN1C(=O)[C@@H](N)CCCNC(=N)N)C(=O)N[C@@H](CC(=O)NCCNS(=O)(=O)c1cccc2cnccc12)C(=O)N[C@@H](CO)C(=O)N[C@@H](Cc1ccccc1)C(N)=O [compound 6130] (H-RPRTD([Ethylenediamine-Isoquinoline5sulfonyl])SF-NH2; N-terminus assumed)
IC50 (PKB; [11]): 9.5 µM
IC50 (PKA; [12]): 0.053 µM

CCCC[C@H](NC(=O)[C@H](CCCNC(=N)N)NC(=O)[C@@H]1CCCN1C(=O)[C@@H](N)CCCNC(=N)N)C(=O)N[C@@H](CCC(=O)NCCC(=O)NCCNS(=O)(=O)c1cccc2cnccc12)C(=O)N[C@@H](CC)C(=O)N[C@@H](Cc1ccccc1)C(N)=O [compound 6138] (H-RPR[Nle]E([βAla-Ethylenediamine-Isoquinoline5sulfonyl])[Abu]F-NH2; N-terminus assumed)
Apoptotic index (48 hours) (PC-3 cells): 3.6
IC50 (PKB; [11]): 2 µM

Arg-Pro-Arg-Nle-Glu-(5-mercaptoaminopropyl-isoquinoline)-Ser-Phe [PTR 6136]
Apoptotic index (48 hours) (PC-3 cells): 2.4

Arg-Pro-Arg-Nva-Glu-(5-mercaptoaminopropyl-isoquinoline)-Ser-Phe [PTR 6134]
Apoptotic index (48 hours) (PC-3 cells): 2.2

Arg-Pro-Arg-Thr-Glu-(5-mercaptoaminopropyl-isoquinoline)-Ser-Phe [PTR 6104]
Apoptotic index (48 hours) (PC-3 cells): 2.9

Arg-Pro-Arg-Thr-Glu-(bAla-5-mercaptoaminopropyl-isoquinoline)-Ser-Phe [PTR 6102]
Apoptotic index (48 hours) (PC-3 cells): 2.7
